Laboratory results: patent US10597398B2, “Suppression and regeneration promoting effect of low molecular weight compound on cancer and fibrosis” (NATIONAL UNIVERSITY CORPORATION TOTTORI UNIVERSITY, priority 2015, dated 2020)

Assays:
mesenchymal stem cell = assay: Hepatocyte differentiation-inducing effect, summary statements on Example 4 (readout not specified); format: cell-based, human; conditions: low concentration
Description: Albumin, a hepatocyte marker, was used as an indicator, and RNA was collected from cells treated with each compound. Next, a hepatocyte differentiation-inducing effect was examined by real-time RT-PCR. The concentrations of the respective compounds were as described in FIG. 35. Each control sample used was 0.1% DMSO, a solvent for each compound.
By using urea synthesis, a hepatocyte function, as an indicator, a hepatocyte differentiation-inducing effect of each compound was investigated.
The cells treated with each compound were subjected to immunofluorescence analysis of albumin, a hepatocyte marker, to investigate a hepatocyte differentiation-inducing effect. The concentrations of the respective compounds were as described in FIG. 37. Each control sample used was 0.1% DMSO, a solvent for each compound.
By using glycogen synthesis, a hepatocyte function, as an indicator, a hepatocyte differentiation-inducing effect of each compound was investigated.

[1] = tested on: cancer stem cells (CD44) in HuH-7 cells; assay: Inhibitory effect on cancer stem cells (FCM analysis of CD44), Example 2.4; format: cell-based, human; conditions: comparison with IC-2
Procedure: CD44, a cancer stem cell marker, was used as an indicator to examine an inhibitory effect of each compound on cancer stem cells. The concentrations of the respective compounds were as described in FIG. 32. Each control sample used was 0.1% DMSO, a solvent for each compound. In the figures, the “‡” indicates a significant difference of p<0.01.
First, 70 to 90% confluent HuH-7 cells were harvested and seeded at 1.5×10^6 cells per 10-cm cell culture dish. After 24 h, each compound was added to the cells and the mixture was cultured at 37° C. At 48 h after the compound treatment, the cells were harvested from each culture dish. The cells were centrifuged at 1000 rpm and at 4° C. for 3 min to remove a supernatant and were then washed twice with 1 mL of 0.5% FBS/2 mM EDTA/PBS. Next, the cells were suspended in 500 μL of 5% BSA/0.5% FBS/2 mM EDTA/PBS for blocking at 4° C. for 15 min. Then, 5 μL of a mouse anti-human CD44 monoclonal antibody (156-3C11, Cell Signaling Technology Inc., Danvers, Mass.) was added to 500 μL of the cell suspension. The mixture was resuspended and subjected to a primary antibody reaction in a dark room at 4° C. for 30 min. After that, the cells were washed 3 times with 1 mL of 0.5% FBS/2 mM EDTA/PBS. Subsequently, 100 μL of Alexa Fluor 488-labeled IgG (H+L) (ab150113, Abcam Ltd., Cambridge, UK), which had been diluted 200-fold with 5% BSA/0.5% FBS/2 mM EDTA/PBS, was added and the cells were suspended. Then, a secondary antibody reaction was carried out in a dark room at 4° C. for 30 min. After that, the cells were washed 3 times with 1 mL of 0.5% FBS/2 mM EDTA/PBS. Thereafter, the cells were suspended in 500 μL of 0.5% FBS/2 mM EDTA/PBS and were made to pass through a 40 μm-mesh column (Becton, Dickinson and Company, Franklin Lakes, N.J.). A Beckman Coulter-Moflo XDP (Beckman Coulter Inc., Fullerton, Calif.) was used for analysis. Following the analysis, further analysis was conducted by adding 2 μL of 0.25 mg/mL Propidium Iodide (PI). The same experiment was repeated four times.

unsorted HuH-7 cells = assay: Mice subcutaneously transplanted with unsorted HuH-7 cells; format: in vivo; conditions: mice transplanted with unsorted HuH-7 cells instead of CD44-positive HuH-7 cells
Description: The effect of treating malignant tumors may be evaluated by imaging, endoscopic examination, biopsy, or detection of a malignant tumor marker. In addition, the effect of treating cancer stem cells may be evaluated by imaging, endoscopic examination, biopsy, or detection of a cancer stem cell marker. In addition, the effect of treating fibrosis may be evaluated by imaging, endoscopic examination, biopsy, or detection of a fibrosis marker. […] At this time, the level of a marker after administration of a therapeutic drug may be 0.7, 0.5, 0.3, or 0.1 times the level before the administration (or of a control). […] At this time, the number of marker-positive cells after administration of the therapeutic drug may be 0.7, 0.5, 0.3, or 0.1 times the number before the administration (or of a control). Note that in Example 6 below, the therapeutic effect was evaluated using mice in which CD44-positive HuH-7 cells had been subcutaneously transplanted. The present inventors also replaced the above CD44-positive HuH-7 cells by unsorted HuH-7 cells.

[2] = tested on: CD44-positive HuH-7 cells; assay: Liver cancer model mouse, tumor volume; format: in vivo, mice; conditions: 50 mg/kg IC-2 vs 30 mg/kg 5-FU, intraperitoneally every three days
Procedure: CD44-positive HuH-7 cells were subcutaneously transplanted in mice. Next, the engrafted mice were divided into 3 groups (DMSO group: 5 mice; 5-FU group: 4 mice; and IC-2 group: 4 mice). Then, DMSO was added to prepare 30 mg/kg of 5-FU and 50 mg/kg of IC-2 such that each liquid volume was 100 μL; and 100% DMSO, a solvent for each drug, was used as a control sample. Subsequently, each drug was dosed intraperitoneally every three days. The body weight of each mouse and the long and short diameters of a tumor were measured every three days. The tumor volume was calculated by using the following equation: Tumor volume=Long diameter×(Short diameter)^2×0.5. The volume at Day 0 was used to normalize each tumor volume, and then a graph was created. To fully evaluate a 5-FU effect, the 5-FU dose was set to an amount 2 times the regular amount 15 mg/kg used in research articles. The concentration of IC-2 corresponding to a concentration at which Wnt/β-catenin signaling was inhibited in vitro was calculated. Then, the concentration was doubled to set an IC-2 dose.

COc1ccc(COc2ccc(CNC(=O)N3CCC(=O)N4C(Cc5ccccc5)C(=O)N(Cc5cccc6ccccc56)CC34)cc2)cc1 (stereo not shown) [IC-2-OPMB]
hepatocyte-inducing effect at low concentration (mesenchymal stem cell): exerted a hepatocyte-inducing effect | inhibitory effect on cancer stem cells compared with IC-2 [1]: more potent inhibitory effect on cancer stem cells than IC-2

O=C1C(Cc2ccccc2)N2C(=O)CCN(C(=O)NCc3ccccc3)C2CN1Cc1cccc2ccccc12 (stereo not shown) [IC-2]
effect of treating a malignant tumor (unsorted HuH-7 cells): exhibits an effect of treating a malignant tumor | anti-malignant tumor therapeutic effect (tumor volume) [2]: more remarkable anti-malignant tumor therapeutic effect than 5-FU
